Assay results as given in patent US8093299B2, “Methods of treating bowel disorders” (Amgen Inc., priority 2007, dated 2012).
“And” between values parts separate entries of the source, which are not always exact repeats. Equal values may be shown once. Read-outs that look alike come from different tables or passages of the source.

Experiments:
[1] = test system: 5% DSS induced colitis in SJL/J mice; experiment: DSS-induced colitis in mice, histopathologic inflammation score of large intestine; type: in vivo, mouse; conditions: 5% DSS 9 days, SJL/J mice; oral; Compound B 10 mg/kg, FK 506 1 mg/kg
Description: Animals. Female SJL/J mice aged 8-10 weeks were used for this study, purchased from Jackson Laboratories (Bar Harbour, Me.). Female Spraque-Dawley rats (approximately 150-300 grams) were purchased from Charles River Laboratories Inc. (Wilmington, Mass.). Mdr1a−/− mice (FVB.129P2-Abcb1a^tm1BorN7), weight 20-21 g, 8 weeks at initiation of experiments, were housed and maintained (5 per cage) in the animal facility at Amgen Washington. All animals were cared for according to the standard protocols of the Amgen Institutional Animal Care and Use Committee.
Chemical reagents. Dextran sodium sulfate (DSS) with molecular mass 36-50 kDa was purchased from ICN Chemicals, Aurora, Ohio. The DSS solution was prepared as a 5% w/v solution in sterile water (Baxter Healthcare Corporation) and sterile filtered through a 0.45 μm filter before being added to drinking water. Water for the negative control groups was similarly filtered. FK506, (also known as Tacrolimus, active ingredient in Prograf®), chemical name [3S-[3R*[E(1S*,3S*,4S*)],4S*,5R*,8S*,9E,12R*,14R*,15S*,16R*,18S*,19S*,26aR*]]-5,6,8,11,12,13,14,15,16,17,18,19,24,25,26,26a-hexadecahydro-5,19-dihydroxy-3-[2-(4-hydroxy-3-methoxycyclohexyl)-1-methylethenyl]-14,16-dimethoxy-4,10,12,18-tetramethyl-8-(2-propenyl)-15,19-epoxy-3H-pyrodi[2,1-c][1,4]oxaazacyclotricosine-1,7,20,21(4H, 23H)-tetrone monohydrate, was used as a positive control for the inflammation treatment. Tacrolimus is a macrolide immunosuppressant produced by Streptomyces tsukubaensis. The solution of FK506 (Prograf®, Astellas) was prepared as follows: 0.1 mg/ml solution in phosphate buffered saline (PBS) was prepared by diluting 5 mg/ml stock solution. The animals were dosed with FK506 at 1 mg/kg in 200 μl of PBS.
Calcimimetic solutions (Compound A, 3-(2-chlorophenyl)-N-((1R)-1-(3-(methyloxy)phenyl)ethyl)-1-propanamine, Compound B, (1R)-N-((6-(methyloxy)-4′-(trifluoromethyl)-3-biphenylyl)methyl)-1-phenylethanamine, Compound C, N-(2-chloro-5-((((1R)-1-phenylethyl)amino)methyl)phenyl)-5-methyl-3-isoxazolecarboxamide, and Compound D, N-(2-chloro-5-((((1R)-1-phenylethyl)amino)methyl)phenyl)-2-pyridinecarboxamide) were formulated and dosed in free base equivalents at volumes determined by the pharmacologist. Formulation vehicle was 20% (w/v) Captisol (β-Cyclodextrin Sulfobutyl Ether Sodium Salt, Research Grade from CyDex, Inc.) in water with a final pH of 2.0-2.2 at room temperature, adjusted with HCl and NaOH as required. Final concentrations of DMSO never exceeded 0.1% (v/v).
DSS colitis in mice. All experiments were performed on groups of 8 to 10 SJL-J mice, housed in the same cage. For disease induction, mice were given a 5% DSS ad libitum as drinking water for 9 days.
Postmortem evaluation. Mice and rats were euthanized by CO2 asphyxiation. The large intestine were removed from the carcass, evaluated for gross lesions and three individual non-adjacent segments of proximal, middle and distal large intestine 2 centimeters long were immersed in the Zinc Formalin fix for 24 hours. At the end of 24 hours the sections were washed with tap water and put into 70% ethanol. Each section was then cut into three 3 mm pieces (9 pieces per animal), processed into paraffin blocks, and sections were cut in 5 μm sections and stained with hematoxylin and eosin.
Histopathologic changes of the proximal, middle, and distal small and large intestine was scored as a global assessment of inflammation based on inflammatory infiltrate, edema, mucosal erosions or ulcerations as described in Table 6.
For disease induction, treated mice were given 5% DSS in water ad libitum as drinking water for 9 days as described in Example 1 and were concurrently treated orally during that period with one of the treatments listed in Table 8.
FIG. 1 and Table 8 summarize the effect of the calcimimetic compound B on colonic inflammation in 5% DSS induced colitis. Animals were euthanized with carbon dioxide on day nine post treatment. […]

[2] = test system: rat unstripped colonic sheets (enteric nervous system activity)
[3] = test system: colitis in mdr1a-/- mice induced by H. bilis; experiment: Colitis in mdr1a-/- mice infected with Helicobacter bilis (clinical score, disease onset, histology); type: in vivo, mouse
[4] = Serum calcium and phosphorus in mdr1a-/- colitis study; type: in vivo, mouse; conditions: 10 mg/kg PO daily; day 38
Method: (§1) All mice were necropsied on day 38 post initial inoculation. Mice were euthanized by CO2 asphyxiation. Blood was obtained by intracardiac puncture and collected in serum separator tubes. Serum was harvested and stored at −80° C. Colons were dissected below the cecum and just above the anus, and the contents of the lumen were removed. Sections of the proximal, middle, and distal colon regions were fixed in 10% neutral buffered formalin for histopathological analysis.
(§2) Serum clinical chemistry analysis was performed on the Olympus AU400 using standard tests and protocols. Calcium and phosphorus measurements were performed on undiluted serum for all samples. Serum cytokines and chemokines were assayed by Lincoplex mouse cytokine/chemokine muliplex immunoassasy (Millipore; Billerica, Mass.) per manufacturer instructions.
(§3) Results for serum analytes were expressed as the mean±standard error of the mean (SEM). A one-way ANOVA with Tukey's post test was performed using GraphPad Prism. A p-value of 0.05 was used in the calculation to determine whether there were significant differences between any two groups. Results for disease onset were expressed as a standard survival curve. A Log-Rank (Mantel-Cox) Test was performed using GraphPad Prism to determine significance. A p-value of 0.05 was used in the calculation to determine whether there were significant differences between any two groups. Results for clinical score and histology score were expressed as the mean±SEM. A Cochran-Mantel-Haenszel mean score test was performed using SAS software. A p-value of 0.05 was used in the calculation to determine whether there were significant differences between any two groups.

IP-10 = experiment: Serum IP-10 in mdr1a-/- colitis study; type: in vivo, mouse; conditions: treatment groups vs vehicle treated animals
Method: as §1, §2, §3

[5] = Compound A 10 μM, bumetanide 100 μM, proximal and distal colon
[6] = 10 mg/kg PO daily, day 38, score 0-4

C=CC[C@@H]1/C=C(\C)C[C@H](C)C[C@H](OC)[C@H]2O[C@@](O)(C(=O)C(=O)N3CCCC[C@H]3C(=O)O[C@H](/C(C)=C/[C@@H]3CC[C@@H](O)[C@H](OC)C3)[C@H](C)[C@@H](O)CC1=O)[C@H](C)C[C@@H]2OC (relative stereo) [FK 506, [3S-[3R*[E(1S*,3S*,4S*)],4S*,5R*,8S*,9E,12R*,14R*,15S*,16R*,18S*,19S*,26aR*]]-5,6,8,11,12,13,14,15,16,17,18,19,24,25,26,26a-hexadecahydro-5,19-dihydroxy-3-[2-(4-hydroxy-3-methoxycyclohexyl)-1-methylethenyl]-14,16-dimethoxy-4,10,12,18-tetramethyl-8-(2-propenyl)-15,19-epoxy-3H-pyrodi[2,1-c][1,4]oxaazacyclotricosine-1,7,20,21(4H, 23H)-tetrone monohydrate, reference compound]
Animals with colonic inflammation/total animals [1]: 10/10

COc1cccc([C@@H](C)NCCCc2ccccc2Cl)c1 [Compound A, 3-(2-chlorophenyl)-N-((1R)-1-(3-(methyloxy)phenyl)ethyl)-1-propanamine]
short-circuit current, subsequent addition after 2 μM TTX [2, 5]: no additional effect
secretory short-circuit current, agent added first ([2]; over 15 minutes, proximal and distal colon, TTX 2 μM, Compound A 10 μM): inhibited the secretory short-circuit current

COc1ccc(CN[C@@H](C)c2ccccc2)cc1-c1ccc(C(F)(F)F)cc1 [S-Compound B]
day on which animals began showing clinical symptoms (disease onset) ([3]; 10 mg/kg PO daily): 27 days
number of animals with clinical signs of disease at onset day ([3]; 10 mg/kg PO daily, day 27, n=5): two
Average LI score ([3]; 10 mg/kg PO daily, day 38): 1.8
GI Inflammation LI DISTAL, Segment Mean ([3]; 10 mg/kg PO daily, day 38): 0.60
GI Inflammation LI MIDDLE, Segment Mean ([3]; 10 mg/kg PO daily, day 38): 0.60
GI Inflammation LI PROXIMAL, Segment Mean ([3]; 10 mg/kg PO daily, day 38): 0.60
Total LI score (Max = 12), individual animals ([3]; 10 mg/kg PO daily, day 38): 0 (4×) and 9
GI Inflammation LI DISTAL, individual animals [3, 6]: 0 (4×) and 3
GI Inflammation LI MIDDLE, individual animals [3, 6]: 0 (4×) and 3
GI Inflammation LI PROXIMAL, individual animals [3, 6]: 0 (4×) and 3
clinical score of the animal with clinical symptoms (max 8) ([3]; 10 mg/kg PO daily, final day): 4
total large intestine (LI) scores of the colitic animals (max 12) ([3]; R-Compound B 10 and 3 mg/kg groups, S-Compound B 10 mg/kg): 9
number of animals with clinical symptoms of disease on the final day of the study ([3]; day 38, per treatment group (S-Compound B 10 mg/kg, n=5; R-Compound B 10 mg/kg and 3 mg/kg, n=10 each)): one
animals with colitis / colon pathology by histology ([3]; per group: R-Compound B 10 and 3 mg/kg each, S-Compound B 10 mg/kg): 1 out of 5
serum calcium levels compared to any other group [4]: not statistically different
serum phosphorus compared to CTLA4 treated animals [4]: significant reduction
elevation of serum IP-10 (IP-10): less elevation

NC1=N[C@H](O)[C@H]2[C@H]3O[C@]4(O)O[C@@H]([C@@H](O)[C@@]2(N1)[C@@H]4O)[C@]3(O)CO [TTX, Tetrodotoxin]
secretory short-circuit current, agent added first [2]: inhibited the secretory short-circuit current
short-circuit current, subsequent addition after 10 μM Compound A [2]: no additional effect

CCCCNc1cc(C(=O)O)cc(S(N)(=O)=O)c1Oc1ccccc1 [bumetanide, Bumetanide]
short-circuit current, subsequent addition after 2 μM TTX [2, 5]: no additional effect
short-circuit current, subsequent addition after 10 μM Compound A ([2]; TTX 2 μM, bumetanide 100 μM, proximal and distal colon): no additional effect
